Test results taken from patent publication US20080194701A1, “Bifunctional Enzyme with Y-Glutamylcysteine Synthetase and Glutathione Synthetase Activity and Uses Thereof” (priority 2004, published 2008).

Columns and labels:
S. mutans γ-GCS-GS = S. mutans γ-GCS-GS (Streptococcus mutans serotype c, UniProt Q8DW15); experiment: γ-GCS activity of S. mutans γ-GCS-GS; settings: substrate Km, γ-GCS activity
From the text: 3′ and 5′ […] 3′ and introduced unique Bgl II and Hind III sites (underlined), respectively.

E. coli γ-GCS = E. coli γ-GCS (Escherichia coli, UniProt P0A6W9); settings: cited from earlier work
Human γ-GCS = target: T1, Human γ-GCS (Homo sapiens, UniProt P48506); settings: cited from earlier work
T1 sequence (P48506 1-637): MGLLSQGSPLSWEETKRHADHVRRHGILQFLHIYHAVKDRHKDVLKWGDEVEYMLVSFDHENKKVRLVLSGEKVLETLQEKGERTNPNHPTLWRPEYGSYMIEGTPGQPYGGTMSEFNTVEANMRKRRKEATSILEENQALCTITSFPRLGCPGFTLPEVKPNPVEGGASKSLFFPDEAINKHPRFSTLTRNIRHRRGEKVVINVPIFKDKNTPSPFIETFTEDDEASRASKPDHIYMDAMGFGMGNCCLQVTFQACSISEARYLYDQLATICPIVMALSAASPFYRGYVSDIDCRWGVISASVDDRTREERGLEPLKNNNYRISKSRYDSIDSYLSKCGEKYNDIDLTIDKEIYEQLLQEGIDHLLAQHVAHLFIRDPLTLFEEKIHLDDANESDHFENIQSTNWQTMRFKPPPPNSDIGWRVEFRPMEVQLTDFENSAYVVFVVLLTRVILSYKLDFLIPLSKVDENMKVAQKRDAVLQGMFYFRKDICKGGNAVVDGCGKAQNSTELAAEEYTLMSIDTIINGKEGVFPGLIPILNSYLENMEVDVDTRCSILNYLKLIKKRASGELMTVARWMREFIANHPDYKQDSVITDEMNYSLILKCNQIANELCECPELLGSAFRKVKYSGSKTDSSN
T1 sequence (P48507 1-274 partner): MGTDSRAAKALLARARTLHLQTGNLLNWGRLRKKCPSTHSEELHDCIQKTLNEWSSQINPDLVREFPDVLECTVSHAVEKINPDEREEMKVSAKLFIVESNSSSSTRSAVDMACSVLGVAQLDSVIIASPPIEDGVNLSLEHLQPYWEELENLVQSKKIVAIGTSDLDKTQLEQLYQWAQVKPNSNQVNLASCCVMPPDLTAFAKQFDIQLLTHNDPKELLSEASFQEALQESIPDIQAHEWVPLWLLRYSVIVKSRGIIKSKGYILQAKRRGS

E. coli GS = E. coli GS (Escherichia coli, UniProt P04425); settings: cited from earlier work
Human GS = target: T2, Human GS (Homo sapiens, UniProt P48637); settings: cited from earlier work
T2 sequence (P48637 1-474): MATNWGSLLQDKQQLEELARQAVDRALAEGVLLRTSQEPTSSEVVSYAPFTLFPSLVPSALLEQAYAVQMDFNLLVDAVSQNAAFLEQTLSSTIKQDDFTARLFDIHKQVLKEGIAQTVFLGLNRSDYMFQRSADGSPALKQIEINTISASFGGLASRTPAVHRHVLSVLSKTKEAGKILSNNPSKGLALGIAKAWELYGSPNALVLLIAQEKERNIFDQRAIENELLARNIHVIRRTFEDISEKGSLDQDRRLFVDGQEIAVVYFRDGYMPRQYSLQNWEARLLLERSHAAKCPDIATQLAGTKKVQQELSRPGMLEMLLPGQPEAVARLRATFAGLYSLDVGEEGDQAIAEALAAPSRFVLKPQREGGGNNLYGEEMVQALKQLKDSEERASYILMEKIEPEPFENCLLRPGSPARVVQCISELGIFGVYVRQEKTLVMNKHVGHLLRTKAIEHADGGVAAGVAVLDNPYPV

E. faecalis γ-GCS-GS [1] = target: T3, E. faecalis γ-GCS-GS (Enterococcus faecalis, UniProt Q82ZG8); experiment: GS activity of E. faecalis γ-GCS-GS; settings: substrate Km, GS activity
E. faecalis γ-GCS-GS [2] = target: T3, E. faecalis γ-GCS-GS; experiment: γ-GCS activity of E. faecalis γ-GCS-GS; settings: substrate Km, γ-GCS activity

Chain of E. coli γ-GCS (P0A6W9 whole entry): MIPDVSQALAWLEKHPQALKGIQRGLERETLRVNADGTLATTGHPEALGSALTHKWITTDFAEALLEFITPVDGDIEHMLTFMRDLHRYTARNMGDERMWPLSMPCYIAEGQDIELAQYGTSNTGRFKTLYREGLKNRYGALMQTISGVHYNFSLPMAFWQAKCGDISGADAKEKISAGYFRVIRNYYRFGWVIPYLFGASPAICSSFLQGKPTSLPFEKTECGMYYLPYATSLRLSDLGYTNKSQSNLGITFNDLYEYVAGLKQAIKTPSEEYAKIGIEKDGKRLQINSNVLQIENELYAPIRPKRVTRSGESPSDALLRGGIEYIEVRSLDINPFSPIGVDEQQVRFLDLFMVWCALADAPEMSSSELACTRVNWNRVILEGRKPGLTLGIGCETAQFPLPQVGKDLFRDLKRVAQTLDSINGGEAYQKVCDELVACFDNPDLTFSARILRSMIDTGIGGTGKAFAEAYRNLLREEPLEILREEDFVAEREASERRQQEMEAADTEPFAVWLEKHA
Chain of E. coli GS (P04425 whole entry): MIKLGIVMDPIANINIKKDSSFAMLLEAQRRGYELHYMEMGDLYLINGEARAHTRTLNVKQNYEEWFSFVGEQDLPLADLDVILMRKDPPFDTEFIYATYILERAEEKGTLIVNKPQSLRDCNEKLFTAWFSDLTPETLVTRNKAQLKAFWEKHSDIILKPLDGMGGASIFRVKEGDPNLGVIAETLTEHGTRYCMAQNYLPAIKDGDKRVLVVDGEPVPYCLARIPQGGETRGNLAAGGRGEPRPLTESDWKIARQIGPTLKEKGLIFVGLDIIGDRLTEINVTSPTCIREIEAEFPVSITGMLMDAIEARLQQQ
T3 sequence (Q82ZG8 whole entry): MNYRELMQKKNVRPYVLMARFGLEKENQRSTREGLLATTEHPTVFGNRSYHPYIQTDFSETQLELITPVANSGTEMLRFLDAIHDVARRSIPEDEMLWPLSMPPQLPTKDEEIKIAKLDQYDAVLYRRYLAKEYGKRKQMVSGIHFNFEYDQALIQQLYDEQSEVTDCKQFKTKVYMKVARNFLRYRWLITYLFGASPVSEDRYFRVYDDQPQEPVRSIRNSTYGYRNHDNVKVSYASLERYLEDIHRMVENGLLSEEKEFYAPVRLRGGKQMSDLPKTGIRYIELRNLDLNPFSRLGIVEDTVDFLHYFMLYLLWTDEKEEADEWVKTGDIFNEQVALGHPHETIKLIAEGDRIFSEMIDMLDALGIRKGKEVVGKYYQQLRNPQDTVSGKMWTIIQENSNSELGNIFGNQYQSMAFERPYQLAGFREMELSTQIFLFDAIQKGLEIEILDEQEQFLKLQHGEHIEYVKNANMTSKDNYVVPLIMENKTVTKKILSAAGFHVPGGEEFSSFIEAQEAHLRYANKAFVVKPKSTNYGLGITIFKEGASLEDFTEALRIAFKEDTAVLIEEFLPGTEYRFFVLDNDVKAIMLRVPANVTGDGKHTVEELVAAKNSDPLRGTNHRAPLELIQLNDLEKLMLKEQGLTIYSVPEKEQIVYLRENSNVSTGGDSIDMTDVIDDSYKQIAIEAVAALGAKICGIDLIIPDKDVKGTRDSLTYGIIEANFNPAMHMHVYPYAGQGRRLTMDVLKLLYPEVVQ
Chain of S. mutans γ-GCS-GS (Q8DW15 whole entry): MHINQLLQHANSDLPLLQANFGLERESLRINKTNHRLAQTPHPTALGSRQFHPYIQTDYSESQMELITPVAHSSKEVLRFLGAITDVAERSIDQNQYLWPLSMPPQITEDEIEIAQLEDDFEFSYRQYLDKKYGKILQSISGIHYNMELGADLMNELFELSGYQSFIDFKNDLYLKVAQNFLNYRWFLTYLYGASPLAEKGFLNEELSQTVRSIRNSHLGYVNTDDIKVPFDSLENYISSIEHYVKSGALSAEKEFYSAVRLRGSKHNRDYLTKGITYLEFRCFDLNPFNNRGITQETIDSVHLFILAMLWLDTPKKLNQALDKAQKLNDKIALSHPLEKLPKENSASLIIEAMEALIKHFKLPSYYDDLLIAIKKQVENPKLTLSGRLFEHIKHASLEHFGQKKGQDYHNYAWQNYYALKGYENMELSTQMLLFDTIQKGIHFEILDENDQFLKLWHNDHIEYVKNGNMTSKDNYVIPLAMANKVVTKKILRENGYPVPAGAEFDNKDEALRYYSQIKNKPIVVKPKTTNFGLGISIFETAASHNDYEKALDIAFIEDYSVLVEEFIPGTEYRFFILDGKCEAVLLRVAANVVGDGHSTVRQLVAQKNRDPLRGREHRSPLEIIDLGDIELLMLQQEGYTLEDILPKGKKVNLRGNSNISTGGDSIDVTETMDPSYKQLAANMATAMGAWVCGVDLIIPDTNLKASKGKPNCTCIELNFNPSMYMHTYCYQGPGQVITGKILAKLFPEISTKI

Q: With Nc1ncnc2c1ncn2[C@@H]1O[C@H](COP(=O)(O)OP(=O)(O)OP(=O)(O)O)[C@@H](O)[C@H]1O [ATP] as the compound, how does the Km (S. mutans γ-GCS-GS) read?
A: 288 ± 105 µM

Q: What about the Km (E. coli γ-GCS; substrate Km) of the same compound?
A: 62 µM

Q: And the Vmax (E. coli γ-GCS; unit = 1 μmol product per hour)?
A: ~3000 units/mg

Q: What about the Km (Human γ-GCS; substrate Km) of the same compound?
A: 400 ± 40 µM

Q: What about the Vmax (Human γ-GCS; unit = 1 μmol product per hour) of the same compound?
A: ~1500 units/mg

Q: What about the Vmax (E. coli GS) of the same compound?
A: 650 units/mg

Q: What about the Km (E. coli GS; substrate Km) of the same compound?
A: 1800 µM

Q: What about the Vmax (Human GS) of the same compound?
A: 361 ± 84 units/mg

Q: What about the Km (Human GS; substrate Km) of the same compound?
A: 220 ± 30 µM

Q: What about the Km (E. faecalis γ-GCS-GS [1]) of the same compound?
A: 179 ± 5 µM

Q: What about the Km (E. faecalis γ-GCS-GS [2]) of the same compound?
A: 2300 ± 100 µM
